From ChEMBL document CHEMBL1817658, “Synthesis and biological activity of optically active phenylbutenoid dimers” (J Nat Prod, 2011)

These compounds were tested against ATP-dependent translocase ABCB1 (Homo sapiens, UniProt P08183) (assay: Inhibition of P-gp in human MCF7/ADR cells assessed as potentiation of daunomycin-induced cytotoxicity at 50 microM incubated for 2 hrs by SRB assay). Conditions: nci/adr-res; call rule not given here.
Sequence of ATP-dependent translocase ABCB1 (P08183 whole entry): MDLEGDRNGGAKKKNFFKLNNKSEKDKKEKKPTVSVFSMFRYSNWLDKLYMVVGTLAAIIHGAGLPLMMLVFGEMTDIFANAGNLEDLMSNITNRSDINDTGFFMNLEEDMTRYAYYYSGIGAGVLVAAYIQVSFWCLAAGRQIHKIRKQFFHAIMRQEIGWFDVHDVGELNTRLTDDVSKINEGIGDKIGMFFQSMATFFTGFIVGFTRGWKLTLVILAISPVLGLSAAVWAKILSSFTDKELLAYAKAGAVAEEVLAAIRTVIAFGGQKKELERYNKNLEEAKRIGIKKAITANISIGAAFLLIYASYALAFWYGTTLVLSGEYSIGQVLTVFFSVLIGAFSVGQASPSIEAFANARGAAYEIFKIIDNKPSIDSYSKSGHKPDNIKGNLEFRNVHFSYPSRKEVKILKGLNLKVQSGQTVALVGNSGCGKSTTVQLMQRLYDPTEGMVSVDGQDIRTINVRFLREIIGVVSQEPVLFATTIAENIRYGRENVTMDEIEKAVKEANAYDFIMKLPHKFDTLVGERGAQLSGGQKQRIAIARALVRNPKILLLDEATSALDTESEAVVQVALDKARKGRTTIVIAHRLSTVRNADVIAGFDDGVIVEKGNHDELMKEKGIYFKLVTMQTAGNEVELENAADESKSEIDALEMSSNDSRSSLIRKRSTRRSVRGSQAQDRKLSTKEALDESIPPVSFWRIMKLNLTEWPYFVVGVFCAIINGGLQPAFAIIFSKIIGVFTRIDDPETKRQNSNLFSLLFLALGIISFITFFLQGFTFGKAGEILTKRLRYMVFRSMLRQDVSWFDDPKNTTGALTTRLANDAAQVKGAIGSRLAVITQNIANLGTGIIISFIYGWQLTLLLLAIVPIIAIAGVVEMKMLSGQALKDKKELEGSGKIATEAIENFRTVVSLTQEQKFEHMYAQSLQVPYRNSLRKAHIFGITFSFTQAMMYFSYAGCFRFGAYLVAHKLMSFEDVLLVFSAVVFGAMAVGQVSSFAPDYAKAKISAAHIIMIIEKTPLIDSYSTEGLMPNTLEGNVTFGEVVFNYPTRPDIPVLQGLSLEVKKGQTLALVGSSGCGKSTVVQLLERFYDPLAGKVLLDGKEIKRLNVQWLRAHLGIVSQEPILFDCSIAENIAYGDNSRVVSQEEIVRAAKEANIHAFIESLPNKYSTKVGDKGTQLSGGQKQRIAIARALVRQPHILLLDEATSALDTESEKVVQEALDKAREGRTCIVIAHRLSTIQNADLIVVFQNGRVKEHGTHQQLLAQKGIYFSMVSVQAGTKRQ
Format: cell-based
With COc1ccc(/C=C/[C@@H]2CCC=C[C@H]2c2ccc(OC)c(OC)c2)cc1OC the “inhibition (INH)” value was “Active”.
With COc1ccc(/C=C\[C@H]2CCC=C[C@@H]2c2ccc(OC)c(OC)c2)cc1OC the “inhibition (INH)” value was “Active”.
With COc1ccc(/C=C/[C@H]2CCC=C[C@@H]2c2ccc(OC)c(OC)c2)cc1OC the “inhibition (INH)” value was “Active”.
